One assay relates to M. tuberculosis B-125. The experiment in a line: MIC against M. tuberculosis strains, agar dilution. The conditions noted are these: S. No. 11 Mt-, Middle Brook 7H10 + OADC, 37° C., 14-21 days. It counts as cell-based, Mycobacterium tuberculosis. On the technique in general: In agar dilution the substance is mixed into plates at graded concentrations.
Another assay concerns M. bovis ATCC 19210. Type of assay: cell-based. To be noted: S. No. 18 NTM, Middle Brook 7H10 + OADC, 37° C., 14-21 days.

The term MIC denotes the smallest concentration in the dilution series that meets the test's criterion for growth inhibition.

Each structure is given as a SMILES string.

Take `CC[C@H]1OC(=O)[C@H](C)[C@@H](O[C@H]2C[C@@](C)(OC)[C@@H](O)[C@H](C)O2)[C@H](C)[C@@H](O[C@@H]2O[C@H](C)C[C@H](N(C)C)[C@H]2O)[C@](C)(OC)C[C@@H](C)C(=O)[C@H](C)[C@@H](O)[C@]1(C)O` [CLA]: the MIC was determined as 16 µg/mL in the assay with M. tuberculosis B-125 and 32 µg/mL in the assay with M. bovis ATCC 19210.

For the compound `CCc1cc(C(N)=S)ccn1` [ETH], the MIC with M. tuberculosis B-125 and in the assay with M. bovis ATCC 19210 was 2.0 µg/mL throughout.

As to `NNC(=O)c1ccncc1` [INH], the MIC worked out at 0.06 µg/mL in the assay on M. tuberculosis B-125 and 0.25 µg/mL in the assay on M. bovis ATCC 19210.

On to `C[C@@H]1CN(c2c(F)c(N)c3c(=O)c(C(=O)O)cn(C4CC4)c3c2F)C[C@H](C)N1` [SPAR], for which the results for the MIC result in the assay with M. tuberculosis B-125 and with M. bovis ATCC 19210 were “≦0.125 μg/ml” and under 0.12 µg/mL, respectively.
